Reference: the supplement of paper PMC10307832

Assays:
Experiment in all cases: relative viability (nuclei count vs DMSO), 5 days (fraction); higher = more cells survive
Vorinostat + Bortezomib = compound: O=C(CCCCCCC(=O)Nc1ccccc1)NO [Vorinostat] + CC(C)C[C@H](NC(=O)[C@H](Cc1ccccc1)NC(=O)c1cnccn1)B(O)O [Bortezomib] (partner 0.002 µM)
Procedure, shortened: (§1)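 Medians of duplicate plates are given as relative viability. That measure is the nuclei count in treated wells divided by the count in vehicle wells. Counts were taken on 4× images of lung cancer cell lines in 1536-well plates, 5 days after pin-tool dosing the day after seeding with one drug alone or a fixed anchor-drug dose plus five library-drug doses (not always all listed) in √10 steps.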

Vorinostat + Olaparib = compound: O=C(CCCCCCC(=O)Nc1ccccc1)NO [Vorinostat] + O=C(c1cc(Cc2n[nH]c(=O)c3ccccc23)ccc1F)N1CCN(C(=O)C2CC2)CC1 [Olaparib] (partner 8 µM)
Procedure, shortened: as §1

Vorinostat + Phenformin = compound: O=C(CCCCCCC(=O)Nc1ccccc1)NO [Vorinostat] + N=C(N)NC(=N)NCCc1ccccc1 [Phenformin] (partner 250 µM)
Procedure, shortened: as §1

Vorinostat + Alpelisib = compound: O=C(CCCCCCC(=O)Nc1ccccc1)NO [Vorinostat] + Cc1nc(NC(=O)N2CCC[C@H]2C(N)=O)sc1-c1ccnc(C(C)(C)C(F)(F)F)c1 [Alpelisib] (partner 2 µM)
Procedure, shortened: as §1

Vorinostat + Luminespib = compound: O=C(CCCCCCC(=O)Nc1ccccc1)NO [Vorinostat] + CCNC(=O)c1noc(-c2cc(C(C)C)c(O)cc2O)c1-c1ccc(CN2CCOCC2)cc1 [Luminespib] (partner 0.01 µM)
Procedure, shortened: as §1

| Cell Line | relative viability (Vorinostat + Bortezomib; first compound 0.253 µM) | relative viability (Vorinostat + Bortezomib; first compound 0.8 µM) | relative viability (Vorinostat + Bortezomib; first compound 2.53 µM) | relative viability (Vorinostat + Bortezomib; first compound 8 µM) | relative viability (Vorinostat + Olaparib; first compound 0.253 µM) | relative viability (Vorinostat + Olaparib; first compound 0.8 µM) | relative viability (Vorinostat + Olaparib; first compound 2.53 µM) | relative viability (Vorinostat + Olaparib; first compound 8 µM) | relative viability (Vorinostat + Phenformin; first compound 0.253 µM) | relative viability (Vorinostat + Phenformin; first compound 0.8 µM) | relative viability (Vorinostat + Phenformin; first compound 2.53 µM) | relative viability (Vorinostat + Phenformin; first compound 8 µM) | relative viability (Vorinostat + Alpelisib; first compound 0.253 µM) | relative viability (Vorinostat + Alpelisib; first compound 0.8 µM) | relative viability (Vorinostat + Alpelisib; first compound 2.53 µM) | relative viability (Vorinostat + Alpelisib; first compound 8 µM) | relative viability (Vorinostat + Luminespib; first compound 0.253 µM) | relative viability (Vorinostat + Luminespib; first compound 0.8 µM) | relative viability (Vorinostat + Luminespib; first compound 2.53 µM) | relative viability (Vorinostat + Luminespib; first compound 8 µM) |
| --- | --- | --- | --- | --- | --- | --- | --- | --- | --- | --- | --- | --- | --- | --- | --- | --- | --- | --- | --- | --- |
| NCI-H1437 | 0.578 | 0.417 | 0.117 | 0.0915 | 0.625 | 0.466 | 0.199 | 0.16 | 0.302 | 0.246 | 0.168 | 0.178 | 0.858 | 0.738 | 0.152 | 0.104 | 1.14 | 1.07 | 0.712 | 0.187 |
| HOP-62 | 1.25 | 0.434 | 0.328 | 0.0711 | 0.468 | 0.35 | 0.16 | 0.0785 | 0.815 | 0.592 | 0.319 | 0.114 | 1.25 | 0.947 | 0.49 | 0.0804 | 0.942 | 0.904 | 0.396 | 0.103 |
| LCLC-97TM1 | 0.724 | 0.413 | 0.121 | 0.0563 | 0.455 | 0.429 | 0.19 | 0.0482 | 0.489 | 0.421 | 0.253 | 0.144 | – | 0.26 | 0.158 | 0.114 | 0.819 | 0.704 | 0.299 | 0.122 |
| NCI-H1975 | 0.438 | 0.198 | 0.0889 | 0.081 | 0.9 | 0.593 | 0.249 | 0.125 | 0.431 | 0.381 | 0.197 | 0.127 | 0.696 | 0.528 | 0.189 | 0.133 | 0.286 | 0.202 | 0.147 | 0.16 |
| NCI-H520 | 0.605 | 0.164 | 0.13 | 0.107 | 0.299 | 0.264 | 0.184 | 0.116 | 0.717 | 0.482 | 0.374 | 0.164 | 1.02 | 0.588 | 0.487 | 0.139 | 0.209 | 0.213 | 0.212 | 0.195 |
| UMC-11 | 0.672 | 0.56 | 0.0652 | 0.0503 | 0.374 | 0.235 | 0.0709 | 0.064 | 0.325 | 0.199 | 0.123 | 0.115 | 1.02 | 0.852 | 0.221 | 0.0659 | 1.03 | 0.566 | 0.149 | 0.108 |
| NCI-H2347 | 0.971 | 0.843 | 0.561 | 0.199 | 0.575 | 0.633 | 0.401 | 0.241 | 0.46 | 0.351 | 0.19 | 0.2 | 1.11 | 1.08 | 0.526 | 0.221 | 0.608 | 0.333 | 0.221 | 0.192 |
| CAL-12T | 1.22 | 0.984 | 0.406 | 0.148 | 0.82 | 0.824 | 0.532 | 0.138 | 0.685 | 0.562 | 0.312 | 0.0876 | 1.18 | 1.07 | 0.462 | 0.0781 | 0.555 | 0.464 | 0.383 | 0.134 |
| COR-L23 | 0.985 | 0.683 | 0.131 | 0.0488 | 0.301 | 0.246 | 0.0921 | 0.0666 | 0.368 | 0.322 | 0.107 | 0.0712 | 0.834 | 0.372 | 0.0994 | 0.0715 | 0.64 | 0.305 | 0.107 | 0.0643 |
| NCI-H2087 | 0.739 | 0.608 | 0.159 | 0.115 | 0.717 | 0.52 | 0.13 | 0.069 | 0.449 | 0.331 | 0.0993 | 0.0935 | 1.03 | 1.06 | 0.393 | 0.134 | 0.226 | 0.148 | 0.157 | 0.127 |
| NCI-H23 | 1.19 | 1.07 | 0.251 | 0.128 | 0.317 | 0.239 | 0.0822 | 0.084 | 0.844 | 0.881 | 0.674 | 0.101 | 0.84 | 0.707 | 0.213 | 0.117 | 0.197 | 0.25 | 0.191 | 0.164 |
| ABC-1 | 0.297 | 0.281 | 0.175 | 0.194 | 1.02 | 1.3 | 0.78 | 0.196 | 0.254 | 0.307 | 0.183 | 0.156 | 1.02 | 0.636 | 0.354 | 0.161 | 1.19 | 0.284 | 0.239 | 0.187 |
| SW 1573 | 1.11 | 1.1 | 0.565 | 0.0796 | 0.745 | 0.399 | 0.212 | 0.0539 | 0.613 | 0.556 | 0.355 | 0.0821 | 1.03 | 0.901 | 0.587 | 0.147 | 0.212 | 0.381 | 0.222 | 0.0808 |
| NCI-H1703 | 0.262 | 0.23 | 0.156 | 0.133 | 0.407 | 0.51 | 0.625 | 0.157 | – | – | – | – | 0.469 | 0.525 | 0.594 | 0.156 | – | – | – | – |
| NCI-H2126 | 1.13 | 1.13 | 0.943 | 0.371 | 0.885 | 0.905 | 0.391 | 0.196 | 0.525 | 0.495 | 0.244 | 0.177 | 0.733 | 0.653 | 0.365 | 0.199 | 0.832 | 0.977 | 0.403 | 0.175 |
| SK-MES-1 | – | – | – | – | 0.84 | 0.774 | 0.327 | 0.181 | 0.719 | 0.723 | 0.517 | 0.207 | 0.948 | 0.904 | 0.437 | 0.144 | 1.01 | 0.774 | 0.423 | 0.178 |
